Target: CYP3A4 (Homo sapiens, UniProt P08684)
Experiment: Co-administration of tradipitant with a CYP3A4 inhibitor
Type: in vivo
Protocol: The method may further include administering tradipitant to the individual at a dose that is determined based upon whether or not a CYP3A4 inhibitor is co-administered with the tradipitant. In a case in which a CYP3A4 inhibitor is not being co-administered to the individual, the method includes administering tradipitant to the individual in a first amount, in a manner similar to the above-described case in which the individual has a CYP3A4 genotype associated with normal metabolism of tradipitant. However, in a case in which a CYP3A4 inhibitor is co-administered with tradipitant to the individual, then the method may include administering tradipitant to the individual in a second ament, where the second amount is smaller than the first amount, in a manner similar to the above-described case in which the individual has a CYP3A4 genotype that is associated with decreased metabolism of tradipitant relative to wildtype. In certain embodiments, the CYP3A4 inhibitor may be selected from amiodarone, aprepitant, cimetidine, ciprofloxacin, clarithromycin, diltiazem, erythromycin, fluconazole, grapefruit juice, itraconazole, ketoconazole, posaconazole, voriconazole, and verapamil. In particular embodiments, the CYP3A4 inhibitor may be considered a strong CYP3A4 inhibitor, and may be selected from: clarithromycin, itraconazole, ketoconazole, and posaconazole, or from ketoconazole and grapefruit juice.
As described above, in certain embodiments, the second, smaller amount of tradipitant may be about 60-90%, 60-85%, 60-80%, 60-75%, or 60-70% of the first amount; about 25-70%, 30-70%, 35-70%, 40-70%, 45-70%, 50-70%, 55-70%, or 60-70% of the first amount; about 35-95%, 40-90%, 50-80%, or 60-70% of the first amount; or about 66-68% of the first amount. The first amount is considered to be 100% of the amount that would be administered to an individual who is […] a CYP3A4 inhibitor with the tradipitant.
Therefore, the identification of an individual in need of treatment with tradipitant, who is or would be co-administered tradipitant and the CYP3A4 inhibitor, enables dosing with tradipitant in a manner that facilitates the desired exposure level of the patient to the parent compound and any active metabolites thereof. […]

[1] = co-administration with a CYP3A4 inhibitor

Sequence of CYP3A4 (P08684 whole entry): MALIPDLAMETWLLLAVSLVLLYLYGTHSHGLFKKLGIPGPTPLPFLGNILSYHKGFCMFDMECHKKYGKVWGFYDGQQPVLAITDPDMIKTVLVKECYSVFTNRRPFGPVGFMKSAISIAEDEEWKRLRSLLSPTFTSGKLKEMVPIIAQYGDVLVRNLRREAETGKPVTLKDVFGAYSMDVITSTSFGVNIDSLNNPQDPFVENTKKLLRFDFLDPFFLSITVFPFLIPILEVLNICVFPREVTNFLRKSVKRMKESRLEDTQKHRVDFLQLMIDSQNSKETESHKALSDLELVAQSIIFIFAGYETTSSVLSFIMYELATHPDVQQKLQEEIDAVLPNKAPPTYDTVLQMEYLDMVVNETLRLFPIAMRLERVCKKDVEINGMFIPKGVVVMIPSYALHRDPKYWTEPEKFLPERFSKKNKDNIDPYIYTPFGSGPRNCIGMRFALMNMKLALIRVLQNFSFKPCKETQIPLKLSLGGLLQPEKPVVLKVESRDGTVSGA

O=C(c1ccccc1Cl)c1cccnc1-c1nnn(Cc2cc(C(F)(F)F)cc(C(F)(F)F)c2)c1-c1ccncc1 [tradipitant, {2-[1-(3,5-Bistrifluoromethylbenzyl)-5-pyridin-4-yl-1H-[1,2,3]triazol-4-yl]-pyridin-3-yl}-(2-chlorophenyl)-methanone]
exposure to tradipitant with CYP3A4 inhibitors (co-administration with CYP3A4 inhibitors, particularly strong): increased exposure to tradipitant | decrease in apparent clearance [1]: about 26.3% | increase in AUC [1]: about 36% | increase in Cmax [1]: about 26%

— US20260373135A1, “Methods of Treatment with Tradipitant” (Vanda Pharmaceuticals Inc., priority 2022, published 2026)
